{"source": "patent US20050042716A1", "about": "“Allergen inactivating method, allergen inactivating filter, air treating apparatus, virus inactivating agent, virus inactivating method, virus inactivating filter, air conditoning unit and air conditioner” (priority 2003, published 2005)", "molecules": {"B1": {"name": "papain: purified edible papain manufactured by Nagase Chemtechs Co. (protein, UniProt P00784 134-345, looked up)", "Papain": "IPEYVDWRQKGAVTPVKNQGSCGSCWAFSAVVTIEGIIKIRTGNLNEYSEQELLDCDRRSYGCNGGYPWSALQLVAQYGIHYRNTYPYEGVQRYCRSREKGPYAAKTDGVRQVQPYNEGALLYSIANQPVSVVLEAAGKDFQLYRGGIFVGPCGNKVDHAVAAVGYGPNYILIKNSWGTGWGENGYIRIKRGTGNSYGVCGLYTSSFYPVKN"}}, "key": {"mite allergen": {"test_system": "mite allergen", "test": "Mite allergen inactivation in mite extract, detected with DaniScan", "format": "biochemical"}, "cedar antigen Cryj-1": {"target": "cedar antigen Cryj-1 (Cryptomeria japonica, UniProt P18632)", "sequence (P18632 22-374)": "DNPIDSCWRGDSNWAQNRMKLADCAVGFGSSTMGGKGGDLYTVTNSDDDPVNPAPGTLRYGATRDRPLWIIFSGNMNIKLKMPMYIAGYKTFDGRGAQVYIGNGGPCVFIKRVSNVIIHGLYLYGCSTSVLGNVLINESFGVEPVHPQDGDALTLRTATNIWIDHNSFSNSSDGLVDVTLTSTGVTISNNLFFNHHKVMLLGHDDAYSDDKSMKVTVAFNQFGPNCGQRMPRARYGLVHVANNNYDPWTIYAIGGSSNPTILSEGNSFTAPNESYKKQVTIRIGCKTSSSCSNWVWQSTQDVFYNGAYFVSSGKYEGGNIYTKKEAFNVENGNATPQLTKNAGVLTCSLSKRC", "test": "Electrophoresis of treated cedar antigen Cryj-1", "format": "biochemical", "conditions": "10 μL 5 N HCL per 10 μL Cj-1 solution, 60° C., 60 minutes"}, "cedar extract": {"test_system": "cedar extract", "test": "Electrophoresis of treated cedar extract (protein staining)", "format": "biochemical"}, "Cj-1 allergen": {"target": "Cj-1 allergen (Cryptomeria japonica, UniProt P18632)", "sequence (P18632 22-374)": "as above", "test": "Electrophoresis and Western blotting with Cj-1 antibody", "format": "biochemical, cedar", "conditions": "for denaturation of Cj-1 protein (Western band): 5 N HCl, 60° C., 60 minutes"}, "cedar antigen Cryj-2": {"target": "cedar antigen Cryj-2 (Cryptomeria japonica, UniProt P43212)", "sequence (P43212 46-433)": "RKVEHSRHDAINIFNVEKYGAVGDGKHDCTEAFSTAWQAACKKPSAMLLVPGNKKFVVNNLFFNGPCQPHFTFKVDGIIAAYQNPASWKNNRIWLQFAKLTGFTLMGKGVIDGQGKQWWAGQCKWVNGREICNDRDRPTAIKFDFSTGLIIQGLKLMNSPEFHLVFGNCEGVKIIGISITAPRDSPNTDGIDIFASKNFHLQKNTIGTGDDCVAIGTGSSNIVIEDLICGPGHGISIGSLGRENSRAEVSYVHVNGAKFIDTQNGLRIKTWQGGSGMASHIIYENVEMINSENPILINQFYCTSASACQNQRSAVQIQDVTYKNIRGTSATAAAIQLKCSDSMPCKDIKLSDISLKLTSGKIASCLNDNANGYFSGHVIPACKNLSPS", "test": "Electrophoresis of treated cedar antigen Cryj-2", "format": "biochemical", "conditions": "10 μL 5 N HCL per 10 μL Cj-2 solution, 60° C., 60 minutes"}, "λ-phage": {"test_system": "λ-phage", "test": "Inactivation test of λ-phage in solution (plaque count on E. coli XL1-Blue MRF′)", "format": "cell-based"}, "M13 phage": {"test_system": "M13 phage", "test": "Inactivation test of M13 phage in solution (plaque count on E. coli JM109)", "format": "cell-based", "conditions": "9 M urea, 1 hour", "experimental": "This solution was added in the 1.5 mL volume tube to prepare a protease treatment solution. […] This solution was added in the 1.5 mL volume tube to prepare an urea treatment solution. […] This solution was added in the 1.5 mL volume tube to prepare an urea/protease treatment solution. Each solution was incubated at 37° C. for 1 hour. After the incubation, 600 μL of PEG solution (20% PEG6000, 2.5M NaCl) was added, and the solution was allowed to stand in ice for 3 hours. […] After incubating the medium at 37° C. for 5 hours, the number of the plaques appeared was counted to determine pfu. […] Into this solution in the 1.5 mL volume tube, 0, 0.08, 0.8 and 8 μL each of pfu protease (manufactured by Takara Bio Co.) solution was added. […] Into this solution in the 1.5 mL volume tube, 0, 0.08, 0.8 and 8 μL each of pfu protease (manufactured by Takara Bio Co.) solution was added. […] Each treatment solution was incubated at 37° C. for 1 hour. After the incubation, 600 μL of PEG solution (20% PEG6000, 2.5M NaCl) was added, and the solution was allowed to stand in ice for 3 hours. […] After incubating the medium at 37° C. for 5 hours, the number of the plaques appeared was counted to determine pfu. […] After the incubation, 600 μL of PEG solution (20% PEG, 2.5M NaCl) was added, and the solution was allowed to stand in ice for 3 hours. […] After incubating the medium at 37° C. for 5 hours, the number of the plaques appeared was counted to determine pfu for evaluating the infection ability. The inactivation ratio of M13 phage was calculated from the results in Table 10, and is shown in the graph in FIG."}, "[1]": {"conditions": "37° C., 1 hour, pfu protease S final 2%, 9 M urea"}}, "data": [{"molecule": "[Na+].[OH-]", "note": "[alkali, sodium hydroxide]", "values": [{"measurement": "mite allergen inactivation (DaniScan band)", "setting": "mite allergen; 2.5 M sodium hydroxide, 40° C. and 60° C., 10 minutes", "value": "inactivated"}]}, {"molecule": "Cl", "note": "[acid, hydrochloric acid]", "values": [{"measurement": "denaturation of Cj-1 protein (bands)", "setting": "cedar antigen Cryj-1", "value": "most of the cedar allergen Cj-1 protein was denatured"}, {"measurement": "denaturation of cedar proteins (bands)", "setting": "cedar extract; 10 μL 5 N HCL per 10 μL cedar preparation, 60° C., 60 minutes", "value": "most of the proteins derived from cedar was denatured"}, {"measurement": "mite allergen inactivation (DaniScan band)", "setting": "mite allergen; 2.5 M hydrochloric acid, 60° C., 60 minutes", "value": "most of the allergen is inactivated"}, {"measurement": "denaturation of Cj-1 protein (Western band)", "setting": "Cj-1 allergen; Cj-1 solution", "value": "most of the cedar antigen Cj-1 protein was denatured"}, {"measurement": "denaturation of Cj-1 protein (Western band)", "setting": "Cj-1 allergen; cedar extract", "value": "most of the cedar antigen Cj-1 protein was denatured"}, {"measurement": "denaturation of Cj-2 protein (bands)", "setting": "cedar antigen Cryj-2", "value": "most of the cedar allergen Cj-2 protein was denatured"}]}, {"molecule": "NC(N)=O", "note": "[Urea, urea]", "values": [{"measurement": "Infection ability of λ-phage", "setting": "λ-phage; 3 M urea, 37° C., treatment time 0 min", "value": "9.4 × 10^7 pfu/ml"}, {"measurement": "Infection ability of λ-phage", "setting": "λ-phage; 3 M urea, 37° C., treatment time 15 min", "value": "1.5 × 10^8 pfu/ml"}, {"measurement": "Infection ability of λ-phage", "setting": "λ-phage; 3 M urea, 37° C., treatment time 60 min", "value": "1.1 × 10^8 pfu/ml"}, {"measurement": "inactivation of λ-phage (in words)", "setting": "λ-phage; 3 M urea, irrespective of the treatment time", "value": "not substantially inactivated"}, {"measurement": "Infection ability of λ-phage", "setting": "λ-phage; 9 M urea, 37° C., treatment time 0 min", "value": "4 × 10^6 pfu/ml"}, {"measurement": "Infection ability of λ-phage by adding 9 M urea", "setting": "λ-phage; 9 M urea, 37° C., treatment time 0 min (Table 6)", "value": "8.4 × 10^5 pfu/mL"}, {"measurement": "Infection ability of λ-phage by adding 9 M urea", "setting": "λ-phage; 9 M urea, 37° C., treatment time 7.5 min", "value": 0, "unit": "pfu/mL"}, {"measurement": "Infection ability of λ-phage", "setting": "λ-phage; 9 M urea, 37° C., treatment time 15 min", "value": 0, "unit": "pfu/ml"}, {"measurement": "Infection ability of λ-phage by adding 9 M urea", "setting": "λ-phage; 9 M urea, 37° C., treatment time 15 min (Table 6)", "value": 0, "unit": "pfu/mL"}, {"measurement": "Infection ability of λ-phage by adding 9 M urea", "setting": "λ-phage; 9 M urea, 37° C., treatment time 30 min", "value": 0, "unit": "pfu/mL"}, {"measurement": "Infection ability of λ-phage", "setting": "λ-phage; 9 M urea, 37° C., treatment time 60 min", "value": 0, "unit": "pfu/ml"}, {"measurement": "Infection ability of λ-phage by adding 9 M urea", "setting": "λ-phage; 9 M urea, 37° C., treatment time 60 min (Table 6)", "value": 0, "unit": "pfu/mL"}, {"measurement": "inactivation of λ-phage (in words)", "setting": "λ-phage; 9 M urea, treatment time of 15 minutes or more", "value": "completely inactivated"}, {"measurement": "Infection ability of λ-phage", "setting": "λ-phage; [1]", "value": 0, "unit": "pfu/mL"}, {"measurement": "inactivation of λ-phage (in words)", "setting": "λ-phage; [1]", "value": "inactivated"}, {"measurement": "inactivation ratio of λ-phage", "setting": "λ-phage; immediately after contacting 9 M urea", "value": "about 99.96%"}, {"measurement": "inactivation ratio of M13 phage", "setting": "M13 phage; 37° C.", "value": "about 50%"}, {"measurement": "Infection ability of M13 phage", "setting": "M13 phage; protease concentration 0, 37° C.", "value": "6.3 × 10^9"}, {"measurement": "Infection ability of M13 phage", "setting": "M13 phage; 37° C., pfu protease S final 2%", "value": "1.1 × 10^10 pfu/mL"}]}, {"molecule": "B1", "values": [{"measurement": "decomposition of cedar proteins (bands)", "setting": "cedar extract; 3 μL (0.2 g/mL) papain solution, 40° C., 15 minutes", "value": "most of the cedar proteins had been decomposed"}, {"measurement": "inactivation of Cj-1 allergen (Western band)", "setting": "Cj-1 allergen; cedar extract, 3 μL (0.2 g/mL) papain, 40° C., 15 minutes", "value": "completely inactivated"}]}]}
